Assay: Initial toxicity assessment in mice by median weight loss after injection
Details: monitored after each injection (1st, 2nd and 3rd booster dose); s.c., saponin 20 μg/mouse with OVA 10 μg/mouse; FIG. 1
Method: Groups of five mice (C57BL/6, female, 6-8 weeks old) were vaccinated subcutaneously three times […] (days 0, 14, and 28) with endotoxin-free OVA (EndoFit™ Ovalbumin, Invitrogen) (10 μg/mouse) in phosphate-buffered saline (PBS, 100 μL) either alone (no-adjuvant control group) or with the synthetic saponins (20 μg/mouse). To analyze the antibody responses over time, mice were bled via the submandibular vein at the indicated pre- (day −1) and post-vaccination timepoint (day 21), and by cardiac puncture at the experimental endpoint (day 35). Blood was collected in BD Microtainer® tubes (Clot Activator/SST™ Gel) and centrifuged at 7500 g for 10 min, after which serum was harvested and stored at −20° C. until further analysis.
As a standard initial overall assessment of the potential toxicity of the saponins, in addition to visual inspection for potential signs of discomfort, the weight loss of each group of mice was monitored before and after each immunization. The median percentage weight change at different timepoints post-injection was determined and analyzed.
Mouse weight loss was monitored after each injection (1st, 2nd and 3rd (booster dose)).

For CC1OC(OC2C(OC(=O)C34CCC(C)(C)CC3C3=CCC5C6(C)CCC(OC7OC(C(=O)O)C(O)C(OC8OCC(O)C(O)C8O)C7OC7OC(CO)C(O)C(O)C7O)C(C)(C=O)C6CCC5(C)C3(C)CC4O)OC(CO)C(NC(=O)CCCCCNC(=O)c3ccc(C(=O)c4ccc(C(=O)NCCOCCOCCOCCOCCOCCNC(=O)CCCCC5SCC6NC(=O)NC65)cc4)cc3)C2O)C(O)C(O)C1OC1OCC(O)C(O)C1O (stereo not shown) [BTS-25-BP], which “Mouse weight loss (toxicity)” value is on record?
The value was “about 2%”.

Reference: US20260285898A1, “SAPONIN DERIVATIVES AS ADJUVANTS AND PHOTOAFFINITY PROBES” (ASOCIACIÓN CENTRO DE INVESTIGACIÓN COOPERATIVE EN …, priority 2023, published 2026)
